Experimental data published in patent publication US20190218207A1, “3-(Pyridin-3-yl)-Acrylamide and N-(Pyridin-3-yl)-Acrylamide Derivatives and Their Use as PAK or NAMPT Modulators” (Karyopharm Therapeutics Inc., priority 2015, published 2019).
Where two headings read alike, the source gives them in different places.

Experiments:
[1] = test system: 3T3 cells; experiment: MTT cell proliferation assay, 3T3 cells; format: cell-based, mouse; conditions: 3T3 fibroblast cells, incubation approximately 64-72 hours
Experimental: (§1) The MTT cell proliferation assay was used to study the cytotoxic properties of the compounds. The assay was performed according to the method described by Roche Molecular Biochemicals, with minor modifications. The assay is based on the cleavage of the tetrazolium salt, MTT, in the presence of an electron-coupling reagent. The water-insoluble formazan salt produced must be solubilized in an additional step. Cells grown in a 96-well tissue culture plate were incubated with the MTT solution for approximately 4 hours. After this incubation period, a water-insoluble formazan dye formed. After solubilization, the formazan dye was quantitated using a scanning multi-well spectrophotometer (ELISA reader). […] The cells were seeded at 5,000-10,000 cells in each well of 96-well plate in 100 μL of fresh culture medium and were allowed to attach overnight. The stock solutions of the compounds were diluted in […] cell culture medium to obtain eight concentrations of each test compound, ranging from 1 nM to 30 μM. […] All optical densities were measured at 490 nm using a Vmax Kinetic Microplate Reader (Molecular Devices). In most cases, the assay was performed in duplicate and the results were presented as a mean percent inhibition to the negative control±SE. The following formula was used to calculate the percent of inhibition: Inhibition (%)=(1-(ODo/OD))×100.
(§2) The compounds were tested against MS751, Z138 and 3T3 cells. The MS751 cell line is derived from a metastasis to lymph node of human cervix from a patient diagnosed with squameous cell carcinoma of the cervix. The Z138 cell line is a mature B-cell acute lymphoblastic leukemia cell line derived from a patient with chronic lumphocytic leukemia. 3T3 cells are standard fibroblast cells; they were originally isolated from Swiss mouse embryo tissue.

[2] = test system: Z138 cells; experiment: MTT cell proliferation assay, Z138 cells; format: cell-based, human
Experimental: as §1, §2

[3] = test system: MS751 cells; experiment: MTT cell proliferation assay, MS751 cells; format: cell-based, human; conditions: Homo sapiens, incubation approximately 64-72 hours, read-out: MTT Assay IC50, MS 751
Experimental: as §1, §2

[4] = Homo sapiens, Z-138, incubation approximately 64-72 hours

Compound | IC50 [1] [µM] | IC50 ([2]; incubation approximately 64-72 hours, read-out: MTT Assay IC50, Z-138) [nM] | IC50 ([1]; Mus musculus, NIH3T3) [µM] | IC50 [2, 4] [nM] | IC50 [3] [nM]
2-(6-aminopyridin-3-yloxy)-N-((4-(3-(4-fluorophenyl)-4′-(4,4-difluoropiperidine-1-carbonyl)biphenyl-4-yl)furan-2-yl)methyl)acetamide [Compound A028] | > 10 | < 1000 | – | – | –
Nc1ccc(/C=C/C(=O)NCc2ccc(-c3ccc(-c4ccc(C(=O)N5CCC(F)(F)CC5)cn4)cc3C(F)(F)F)o2)cn1 [Compound A001, (E)-3-(6-aminopyridin-3-yl)-N-((5-(4-(5-(4,4-difluoropiperidine-1-carbonyl)pyridin-2-yl)-2-(trifluoromethyl)phenyl)furan-2-yl)methyl)acrylamide] | – | – | 1 to 5 | < 1000 | < 1000
O=C(/C=C/c1cccnc1)NCc1ccc(-c2ccc(-c3ccc(C(=O)N4CCC(F)(F)CC4)cn3)cc2C(F)(F)F)o1 [Compound A002, (E)-N-((5-(4-(5-(4,4-difluoropiperidine-1-carbonyl)pyridin-2-yl)-2-(trifluoromethyl)phenyl)furan-2-yl)methyl)-3-(pyridin-3-yl)acrylamide] | – | – | > 10 | < 1000 | < 1000
Nc1ccc(/C=C/C(=O)NCc2ccc(-c3ccc(-c4ccc(C(=O)N5CC(F)(F)C5)cn4)cc3C(F)(F)F)o2)cn1 [Compound A003, (E)-3-(6-aminopyridin-3-yl)-N-((5-(4-(5-(3,3-difluoroazetidine-1-carbonyl)pyridin-2-yl)-2-(trifluoromethyl)phenyl)furan-2-yl)methyl)acrylamide] | – | – | < 1 | < 1000 | < 1000
Nc1ccc(/C=C/C(=O)NCc2ccc(-c3ccc(-c4ccc(C(=O)N5CCC(F)(F)CC5)cn4)cc3C(F)(F)F)s2)cn1 [Compound A005, (E)-3-(6-aminopyridin-3-yl)-N-((5-(4-(5-(4,4-difluoropiperidine-1-carbonyl)pyridin-2-yl)-2-(trifluoromethyl)phenyl)thiophen-2-yl)methyl)acrylamide] | – | – | 1 to 5 | < 1000 | < 1000
Nc1ccc(/C=C/C(=O)NCc2ccc(-c3ccc(-c4ccc(C(=O)N5CCC(F)(F)CC5)cn4)cc3Cl)o2)cn1 [Compound A006, (E)-3-(6-aminopyridin-3-yl)-N-((5-(2-chloro-4-(5-(4,4-difluoropiperidine-1-carbonyl)pyridin-2-yl)phenyl)furan-2-yl)methyl)acrylamide] | – | – | 1 to 5 | < 1000 | < 1000
Nc1ccc(/C=C/C(=O)NCc2ccc(-c3ccc(-c4ccc(C(=O)N5CCC(F)(F)CC5)cc4F)cc3-c3ccc(F)cc3)o2)cn1 [Compound A007, (E)-3-(6-aminopyridin-3-yl)-N-((5-(4-(4,4-difluoropiperidine-1-carbonyl)-2,4″-difluoro-[1,1′:3′,1″-terphenyl]-4′-yl)furan-2-yl)methyl)acrylamide] | – | – | 5 to 10 | < 1000 | < 1000
Nc1ccc(/C=C/C(=O)NCc2ccc(-c3ccc(-c4ccc(C(=O)N5CCC(F)(F)CC5)cc4)cc3-c3ccc(F)cc3)o2)cn1 [Compound A008, (E)-3-(6-aminopyridin-3-yl)-N-((5-(4-(4,4-difluoropiperidine-1-carbonyl)-4″-fluoro-[1,1′:3′,1″-terphenyl]-4′-yl)furan-2-yl)methyl)acrylamide] | – | – | 5 to 10 | < 1000 | < 1000
Nc1ccc(/C=C/C(=O)NCc2ccc(-c3cc4c(C(=O)N5CCC(F)(F)CC5)c[nH]c4cc3C(F)(F)F)o2)cn1 [Compound A029, (E)-3-(6-aminopyridin-3-yl)-N-((5-(3-(4,4-difluoropiperidine-1-carbonyl)-6-(trifluoromethyl)-1H-indol-5-yl)furan-2-yl)methyl)acrylamide] | – | – | > 10 | < 1000 | –
